Molecular target: Trypanosoma brucei (Tb) N-myristoyl transferase (Trypanosoma brucei brucei, UniProt Q388H8)
Experiment: Fluorescence-based NMT assay (a), adapted version, TbNMT
Assay type: biochemical

Chain of Trypanosoma brucei (Tb) N-myristoyl transferase (Q388H8 entry or part of it): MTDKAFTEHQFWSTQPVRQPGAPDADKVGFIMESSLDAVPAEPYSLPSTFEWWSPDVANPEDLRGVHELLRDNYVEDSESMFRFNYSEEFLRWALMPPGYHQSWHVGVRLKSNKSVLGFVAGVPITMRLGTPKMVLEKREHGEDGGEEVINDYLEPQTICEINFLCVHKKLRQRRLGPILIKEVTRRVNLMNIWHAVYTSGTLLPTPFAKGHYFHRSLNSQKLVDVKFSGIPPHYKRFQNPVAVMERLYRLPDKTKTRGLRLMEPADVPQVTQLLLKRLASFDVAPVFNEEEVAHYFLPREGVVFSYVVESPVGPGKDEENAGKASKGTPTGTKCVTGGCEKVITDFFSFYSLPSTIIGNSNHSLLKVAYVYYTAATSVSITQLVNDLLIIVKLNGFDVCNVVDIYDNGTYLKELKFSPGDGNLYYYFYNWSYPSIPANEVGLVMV

Cc1nn(C)c(C)c1CCOc1cc(F)ccc1-c1ccc2[nH]nc(CN(C)C)c2c1 [Example 7]
IC50: 1 to 100 nM

Reference: patent US11466011B2, “Compounds and their use as inhibitors of N-myristoyl transferase” (Imperial College Innovations Limited, priority 2015, dated 2022)
